Laboratory results published in ChEMBL document CHEMBL1127139, “Synthesis and -lactamase inhibitory activity of 6-hydroxyethyl thiaclavulanic acid” (Bioorg Med Chem Lett, 1993).
Converted amounts (≈) assume the structure as drawn.

Columns and labels:
[1] = target: Beta-lactamase (Enterobacter cloacae) (UniProt P05364); assay: Tested for inhibitory activity against beta-lactamase (groupI) Enterobacter cloacae P99 in presence of ampicillin + 80 ug/mL of compound
[2] = target: Beta-lactamase TEM (Escherichia coli) (UniProt P62593); assay: Tested for inhibitory activity against beta-lactamase (groupIII) Escherichia coli RPI in presence of ampicillin + 20 ug/mL of compound
Sequence of Beta-lactamase TEM (Escherichia coli) (P62593 whole entry): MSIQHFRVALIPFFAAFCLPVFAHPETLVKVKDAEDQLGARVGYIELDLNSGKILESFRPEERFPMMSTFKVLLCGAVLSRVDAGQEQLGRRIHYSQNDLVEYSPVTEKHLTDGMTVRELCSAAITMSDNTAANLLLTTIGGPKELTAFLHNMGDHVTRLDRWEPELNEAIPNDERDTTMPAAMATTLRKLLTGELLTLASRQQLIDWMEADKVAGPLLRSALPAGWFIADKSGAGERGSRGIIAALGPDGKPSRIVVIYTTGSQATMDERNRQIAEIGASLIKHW

[3] = target: Beta-lactamase TEM (Escherichia coli) (UniProt P62593); assay: Tested for inhibitory activity against beta-lactamase (groupIII) Escherichia coli RPI in presence of ampicillin + 80 ug/mL of compound
[4] = target: Beta-lactamase OXA-1 (Escherichia coli) (UniProt P13661); assay: Tested for inhibitory activity against beta-lactamase (groupV) Escherichia coli R57b in presence of ampicillin + 20 ug/mL of compound
Sequence of Beta-lactamase OXA-1 (Escherichia coli) (P13661 whole entry): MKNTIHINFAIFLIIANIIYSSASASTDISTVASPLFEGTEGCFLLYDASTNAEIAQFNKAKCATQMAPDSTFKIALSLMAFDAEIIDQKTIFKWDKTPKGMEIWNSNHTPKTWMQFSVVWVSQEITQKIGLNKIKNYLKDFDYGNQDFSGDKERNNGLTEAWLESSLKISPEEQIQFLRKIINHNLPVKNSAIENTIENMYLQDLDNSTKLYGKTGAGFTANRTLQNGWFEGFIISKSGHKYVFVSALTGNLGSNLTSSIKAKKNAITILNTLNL

[5] = target: Beta-lactamase OXA-1 (Escherichia coli) (UniProt P13661); assay: Tested for inhibitory activity against beta-lactamase (groupV) Escherichia coli R57b in presence of ampicillin + 80 ug/mL of compound
[6] = target: Beta-lactamase OXA-1 (Escherichia coli) (UniProt P13661); assay: Tested for inhibitory activity against beta-lactamase (groupV) Escherichia coli RGN in presence of ampicillin + 20 ug/mL of compound
[7] = target: Beta-lactamase OXA-1 (Escherichia coli) (UniProt P13661); assay: Tested for inhibitory activity against beta-lactamase (groupV) Escherichia coli RGN in presence of ampicillin + 80 ug/mL of compound
[8] = target: T1, Beta-lactamase OXA-9 (Klebsiella aerogenes) (UniProt P0A3M4); assay: Tested for inhibitory activity against beta-lactamase (groupIV) Klebsiella aerogenes 1082E in presence of ampicillin + 20 ug/mL of compound
T1 sequence (whole entry): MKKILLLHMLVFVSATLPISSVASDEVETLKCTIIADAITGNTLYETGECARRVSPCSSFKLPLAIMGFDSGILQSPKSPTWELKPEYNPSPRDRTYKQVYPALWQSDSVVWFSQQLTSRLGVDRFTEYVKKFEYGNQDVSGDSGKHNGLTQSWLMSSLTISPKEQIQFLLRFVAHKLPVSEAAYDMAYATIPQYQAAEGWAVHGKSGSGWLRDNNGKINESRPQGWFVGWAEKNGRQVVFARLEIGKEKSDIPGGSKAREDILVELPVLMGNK

[9] = target: T1, Beta-lactamase OXA-9 (Klebsiella aerogenes); assay: Tested for inhibitory activity against beta-lactamase (groupIV) Klebsiella aerogenes 1082E in presence of ampicillin + 80 ug/mL of compound
[10] = target: Beta-lactamase (Staphylococcus aureus) (UniProt P00807); assay: Tested for inhibitory activity against beta-lactamase (groupII) staphylococcus aureus 39/2 strain in presence of ampicillin + 20 ug/mL of compound
[11] = target: Beta-lactamase (Staphylococcus aureus) (UniProt P00807); assay: Tested for inhibitory activity against beta-lactamase (groupII) staphylococcus aureus 39/2 strain in presence of ampicillin + 80 ug/mL of compound
[12] = target: Beta-lactamase OXA-1 (Escherichia coli) (UniProt P13661); assay: Tested for inhibitory activity against beta-lactamase (groupV) Escherichia coli R57b
[13] = target: T1, Beta-lactamase OXA-9 (Klebsiella aerogenes); assay: Tested for inhibitory activity against beta-lactamase (groupIV) Klebsiella aerogenes 1082E
[14] = target: Beta-lactamase TEM (Escherichia coli) (UniProt P62593); assay: Tested for inhibitory activity against beta-lactamase (groupIII) Escherichia coli RPI
[15] = target: Beta-lactamase (Staphylococcus aureus) (UniProt P00807); assay: Tested for inhibitory activity against beta-lactamase (groupII) staphylococcus aureus 39/2 strain
[16] = target: Beta-lactamase (Enterobacter cloacae) (UniProt P05364); assay: Tested for inhibitory activity against beta-lactamase (groupI) Enterobacter cloacae P99
[17] = target: Beta-lactamase OXA-1 (Escherichia coli) (UniProt P13661); assay: Tested for inhibitory activity against beta-lactamase (groupV) Escherichia coli RGN

Sequence of Beta-lactamase (Enterobacter cloacae) (P05364 21-381 limits assumed): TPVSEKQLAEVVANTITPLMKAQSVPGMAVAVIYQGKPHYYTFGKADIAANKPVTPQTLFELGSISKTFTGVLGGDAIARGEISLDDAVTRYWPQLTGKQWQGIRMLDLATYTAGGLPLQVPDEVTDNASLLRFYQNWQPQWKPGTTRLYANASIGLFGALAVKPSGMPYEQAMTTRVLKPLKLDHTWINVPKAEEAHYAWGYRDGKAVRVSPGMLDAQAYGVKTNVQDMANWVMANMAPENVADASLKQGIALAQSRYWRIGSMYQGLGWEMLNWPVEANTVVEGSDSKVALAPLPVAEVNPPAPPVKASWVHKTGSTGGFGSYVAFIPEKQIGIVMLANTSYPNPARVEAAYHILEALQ

Row | MIC [1] [µg/mL] | MIC [2] [µg/mL] | MIC [3] [µg/mL] | MIC [4] [µg/mL] | MIC [5] [µg/mL] | MIC [6] [µg/mL] | MIC [7] [µg/mL] | MIC [8] [µg/mL] | MIC [9] [µg/mL] | MIC [10] [µg/mL] | MIC [11] [µg/mL] | MIC [12] [µg/mL] | MIC [13] [µg/mL] | MIC [14] [µg/mL] | MIC [15] [µg/mL] | MIC [16] [µg/mL] | MIC [17] [µg/mL] | Structure (SMILES)
1 | > 100 | > 100 | > 100 | 6.25 | 1.56 | 6.25 | 3.12 | > 100 | > 100 | < 0.39 | < 0.39 | – | – | – | – | – | – | C[C@H](O)[C@H]1C(=O)N2[C@@H]1S/C(=C\CO)[C@@H]2C(=O)O
2 | – | – | – | – | – | – | – | – | – | – | – | 100 (≈ 286 µM) | > 100 | > 100 | 1.56 (≈ 4.46 µM) | > 100 | 12.5 (≈ 35.8 µM) | CC1(C)S[C@@H]2[C@H](NC(=O)[C@H](N)c3ccccc3)C(=O)N2[C@H]1C(=O)O
